Measurements from ChEMBL document CHEMBL1132208, “Molecular hashkeys: a novel method for molecular characterization and its application for predicting important pharmaceutical properties of molecules” (J Med Chem, 1999).

The compounds below were run on Homo sapiens (assay: Percent of the drug absorbed after administration to humans was determined). Details: in vivo.
Assay type: ADME, organism-based

Compound	Absorption [%]
C=CCc1ccccc1OCC(O)CNC(C)C (stereo not drawn) [ALPRENOLOL]	96
Cc1cc(=O)n(-c2ccccc2)n1C [ANTIPYRINE]	97
O=C(O)P(=O)(O)O [FOSCARNET]	17
OC[C@H]1O[C@@H](O[C@@H]2[C@@H](CO)O[C@](O)(CO)[C@H]2O)[C@H](O)[C@@H](O)[C@H]1O [LACTULOSE]	0.6
OC[C@@H](O)[C@@H](O)[C@H](O)[C@H](O)CO [MANNITOL]	26
Cc1ccccc1N1C(=O)c2cc(S(N)(=O)=O)c(Cl)cc2NC1C (stereo not drawn) [METOLAZONE]	64
O=C(O)c1cc(/N=N/c2ccc(O)c(C(=O)O)c2)ccc1O [OLSALAZINE]	2.3
C=CCOc1ccccc1OCC(O)CNC(C)C (stereo not drawn) [OXPRENOLOL]	97
CC(C)NCC(O)COc1cccc2[nH]ccc12 (stereo not drawn) [PINDOLOL]	92
OC[C@H]1O[C@H](OC[C@H]2O[C@H](O[C@]3(CO)O[C@H](CO)[C@@H](O)[C@@H]3O)[C@H](O)[C@@H](O)[C@@H]2O)[C@H](O)[C@@H](O)[C@H]1O [RAFFINOSE]	0.3
O=C(O)c1cc(/N=N/c2ccc(S(=O)(=O)Nc3ccccn3)cc2)ccc1O [SULFASALAZINE]	12
CCN1CCCC1CNC(=O)c1cc(S(N)(=O)=O)ccc1OC (stereo not drawn) [SULPIRIDE]	36
NC[C@H]1CC[C@H](C(=O)O)CC1 [TRANEXAMIC ACID]	55
